Reference: the supplement of paper PMC10307832

compound: NC(=O)c1ccc(N(C(N)=O)c2c(F)cccc2F)nc1-c1ccc(F)cc1F [VX-702] + O=C(CCCCCCC(=O)Nc1ccccc1)NO [Vorinostat] (partner 1 µM); experiment: relative viability (nuclei count vs DMSO), 5 days (fraction); higher = more cells survive; details: first compound 0.2 µM
Method in brief: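 Five library-drug doses in √10 steps were combined with a fixed anchor-drug dose, or a single drug was given alone, by pin tool to lung cancer cell lines in 1536-well plates the day after seeding. Nuclei were stained and counted after 5 days. Relative viability is the nuclei count in treated wells over that in vehicle wells, taken as the median of duplicate plates.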

Cell Line | relative viability
NCI-H2405 | 0.909
NCI-H1993 | 0.754
PC-3 [JPC-3] | 0.773
NCI-H2009 | 0.847
NCI-H2347 | 0.594
NCI-H520 | 0.649
LXF-289 | 0.765
LC-2-ad | 0.678
201T | 0.956
NCI-H1666 | 0.989
NCI-H2023 | 0.736
NCI-H322M | 0.874
HARA | 0.51

same assay, conditions: first compound 0.6325 µM

Cell Line | relative viability
EKVX | 0.676
COR-L23 | 0.46
NCI-H1437 | 0.863
RERF-LC-KJ | 0.716
NCI-H1734 | 0.781
BEN | 0.643
NCI-H460 | 0.769
H3255 | 0.598
SK-LU-1 | 0.767
NCI-H23 | 0.575
SW 1573 | 0.707
NCI-H838 | 0.751
EPLC-272H | 0.535
NCI-H3122 | 1.22
NCI-H1915 | 0.492
NCI-H1975 | 0.701
HCC-366 | 0.427

Cell Line | relative viability
NCI-H2087 | 0.662
LCLC-97TM1 | 0.782
NCI-H661 | 0.76
NCI-H2405 | 0.972
NCI-H1993 | 0.588
PC-3 [JPC-3] | 0.908
NCI-H2009 | 0.907
NCI-H2347 | 0.454
NCI-H520 | 0.691
LXF-289 | 0.811
LC-2-ad | 0.773
201T | 1.09
NCI-H1666 | 0.993
NCI-H2023 | 0.679
NCI-H322M | 0.854
HARA | 0.542

same assay, conditions: first compound 2 µM

Cell Line | relative viability
EKVX | 0.696
COR-L23 | 0.491
NCI-H1437 | 1.05
RERF-LC-KJ | 0.694
NCI-H1734 | 0.732
BEN | 0.559
NCI-H460 | 0.925
H3255 | 0.866
SK-LU-1 | 1.04
NCI-H23 | 0.669
SW 1573 | 0.8
NCI-H838 | 0.787
EPLC-272H | 0.438
NCI-H3122 | 1.1
NCI-H1915 | 0.548
NCI-H1975 | 0.786
HCC-366 | 0.133
NCI-H2087 | 0.958
LCLC-97TM1 | 0.878
NCI-H661 | 0.816
NCI-H2405 | 1.1
NCI-H1993 | 1.03
